Results published in PubChem BioAssay AID1918941 (Molecular Pharmacology Branch, DTP, NCI, 2023).

System: SW 1271 complex spheroids, viability
Experiment: Anticancer human tumor SW 1271 cell line growth inhibition [LSD1];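 note: spheroids exposed to agents for 7 days before luminescence read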;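 for viability, T/C: 100% = DMSO vehicle control viability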
Conditions: for IC50: curve of first compound; for viability, T/C: stronger effect = lower value
Outline: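 Drug combinations with the LSD1 inhibitor iadademstat tested on tumor cells co-cultured as spheroids with endothelial cells and mesenchymal stem cells. Concentrations descended in half-log increments from clinical Cmax or 10 microM.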

[1] = second compound 0.1 µM, first compound 0.00316 µM
[2] = second compound 0.1 µM, first compound 0.01 µM
[3] = second compound 0.1 µM, first compound 0.0316 µM
[4] = second compound 0.1 µM, first compound 0.1 µM
[5] = second compound 0.316 µM, first compound 0.00316 µM
[6] = second compound 0.316 µM, first compound 0.01 µM
[7] = second compound 0.316 µM, first compound 0.0316 µM
[8] = second compound 0.316 µM, first compound 0.1 µM
[9] = second compound 1 µM, first compound 0.00316 µM
[10] = second compound 1 µM, first compound 0.01 µM
[11] = second compound 1 µM, first compound 0.0316 µM
[12] = second compound 1 µM, first compound 0.1 µM
[13] = second compound 3.16 µM, first compound 0.00316 µM
[14] = second compound 3.16 µM, first compound 0.01 µM
[15] = second compound 3.16 µM, first compound 0.0316 µM
[16] = second compound 3.16 µM, first compound 0.1 µM
[17] = second compound 10 µM, first compound 0.00316 µM
[18] = second compound 10 µM, first compound 0.01 µM
[19] = second compound 10 µM, first compound 0.0316 µM
[20] = second compound 10 µM, first compound 0.1 µM

Compound `COc1cc(Nc2ncc3c(n2)-c2ccc(Cl)cc2C(c2c(F)cccc2OC)=NC3)ccc1C(=O)O` + NC1CC1c1ccc(-c2cccc(O)c2)cc1 has an IC50 (second compound 0.1 µM) of 0.0797 µM, an IC50 (second compound 0.316 µM) of 0.069 µM and an IC50 (second compound 1 µM) of 0.114 µM. The IC50 (second compound 3.16 µM) was 0.079 µM, the IC50 (second compound 10 µM) was 0.0645 µM and the viability, T/C [1] was 75.8%. For the same compound, the viability, T/C [2] was 69.2%, the viability, T/C [3] was 67.3% and the viability, T/C [4] was 43.5%. It also gave a viability, T/C (second compound 0.1 µM, first compound 0.316 µM) of 29%, a viability, T/C (second compound 0.1 µM, first compound 1 µM) of 13.3% and a viability, T/C [5] of 62.6%. For the same compound, the viability, T/C [6] was 69.7%, the viability, T/C [7] was 58.2% and the viability, T/C [8] was 43%. For the same compound, the viability, T/C (second compound 0.316 µM, first compound 0.316 µM) was 31.4%, the viability, T/C (second compound 0.316 µM, first compound 1 µM) was 13.1% and the viability, T/C [9] was 68.4%. For the same compound, the viability, T/C [10] was 67.3%, the viability, T/C [11] was 73.6% and the viability, T/C [12] was 48.1%. The viability, T/C (second compound 1 µM, first compound 0.316 µM) was 31%, the viability, T/C (second compound 1 µM, first compound 1 µM) was 11.6% and the viability, T/C [13] was 60.1%. For the same compound, the viability, T/C [14] was 55.7%, the viability, T/C [15] was 67.7% and the viability, T/C [16] was 43.4%. For the same compound, the viability, T/C (second compound 3.16 µM, first compound 0.316 µM) was 28.6%, the viability, T/C (second compound 3.16 µM, first compound 1 µM) was 13.7% and the viability, T/C [17] was 65.6%. The viability, T/C [18] was 59.1%, the viability, T/C [19] was 61.2% and the viability, T/C [20] was 43%. For the same compound, the viability, T/C (second compound 10 µM, first compound 0.316 µM) was 29.6% and the viability, T/C (second compound 10 µM, first compound 1 µM) was 17.2%.

Compound `Cn1ncnc1C1c2n[nH]c(=O)c3cc(F)cc(c23)NC1c1ccc(F)cc1` (stereo not given) + NC1CC1c1ccc(-c2cccc(O)c2)cc1 has an IC50 (second compound 0.1 µM) greater than 0.1 µM, an IC50 (second compound 0.316 µM) greater than 0.1 µM and an IC50 (second compound 1 µM) greater than 0.1 µM. The IC50 (second compound 3.16 µM) was greater than 0.1 µM, the IC50 (second compound 10 µM) was 0.0655 µM and the viability, T/C (second compound 0.1 µM, first compound 0.000316 µM) was 97.8%. It also gave a viability, T/C (second compound 0.1 µM, first compound 0.001 µM) of 80.9%, a viability, T/C [1] of 72.3% and a viability, T/C [2] of 85.8%. It also gave a viability, T/C [3] of 71.3%, a viability, T/C [4] of 66.7% and a viability, T/C (second compound 0.316 µM, first compound 0.000316 µM) of 77.6%. It also gave a viability, T/C (second compound 0.316 µM, first compound 0.001 µM) of 72.6%, a viability, T/C [5] of 67.5% and a viability, T/C [6] of 68.9%. For the same compound, the viability, T/C [7] was 71%, the viability, T/C [8] was 77% and the viability, T/C (second compound 1 µM, first compound 0.000316 µM) was 78.1%. It also gave a viability, T/C (second compound 1 µM, first compound 0.001 µM) of 75.7%, a viability, T/C [9] of 72.8% and a viability, T/C [10] of 67.5%. It also gave a viability, T/C [11] of 66.1%, a viability, T/C [12] of 82.7% and a viability, T/C (second compound 3.16 µM, first compound 0.000316 µM) of 75.8%. For the same compound, the viability, T/C (second compound 3.16 µM, first compound 0.001 µM) was 85.5%, the viability, T/C [13] was 78.9% and the viability, T/C [14] was 57.3%. For the same compound, the viability, T/C [15] was 59.2%, the viability, T/C [16] was 57.9% and the viability, T/C (second compound 10 µM, first compound 0.000316 µM) was 64.7%. The viability, T/C (second compound 10 µM, first compound 0.001 µM) was 66.7%, the viability, T/C [17] was 67.2% and the viability, T/C [18] was 61.3%. It also gave a viability, T/C [19] of 48.6% and a viability, T/C [20] of 49.7%.

Work on `NS(=O)(=O)OCC1CC(n2ccc3c(NC4CCc5ccccc54)ncnc32)CC1O` (stereo not given) + NC1CC1c1ccc(-c2cccc(O)c2)cc1 yielded an IC50 (second compound 0.1 µM) greater than 3 µM, an IC50 (second compound 0.316 µM) greater than 3 µM and an IC50 (second compound 1 µM) greater than 3 µM. It also gave an IC50 (second compound 3.16 µM) greater than 3 µM, an IC50 (second compound 10 µM) greater than 3 µM and a viability, T/C (second compound 0.1 µM, first compound 0.00949 µM) of 151%. For the same compound, the viability, T/C (second compound 0.1 µM, first compound 0.03 µM) was 123%, the viability, T/C (second compound 0.1 µM, first compound 0.0949 µM) was 103% and the viability, T/C (second compound 0.1 µM, first compound 0.3 µM) was 86%. It also gave a viability, T/C (second compound 0.1 µM, first compound 0.949 µM) of 85.5%, a viability, T/C (second compound 0.1 µM, first compound 3 µM) of 88.5% and a viability, T/C (second compound 0.316 µM, first compound 0.00949 µM) of 166%. The viability, T/C (second compound 0.316 µM, first compound 0.03 µM) was 112%, the viability, T/C (second compound 0.316 µM, first compound 0.0949 µM) was 94.5% and the viability, T/C (second compound 0.316 µM, first compound 0.3 µM) was 82.3%. For the same compound, the viability, T/C (second compound 0.316 µM, first compound 0.949 µM) was 82.1%, the viability, T/C (second compound 0.316 µM, first compound 3 µM) was 79.9% and the viability, T/C (second compound 1 µM, first compound 0.00949 µM) was 148%. For the same compound, the viability, T/C (second compound 1 µM, first compound 0.03 µM) was 110%, the viability, T/C (second compound 1 µM, first compound 0.0949 µM) was 95.9% and the viability, T/C (second compound 1 µM, first compound 0.3 µM) was 75.8%. For the same compound, the viability, T/C (second compound 1 µM, first compound 0.949 µM) was 85.9%, the viability, T/C (second compound 1 µM, first compound 3 µM) was 79% and the viability, T/C (second compound 3.16 µM, first compound 0.00949 µM) was 144%. The viability, T/C (second compound 3.16 µM, first compound 0.03 µM) was 101%, the viability, T/C (second compound 3.16 µM, first compound 0.0949 µM) was 99.9% and the viability, T/C (second compound 3.16 µM, first compound 0.3 µM) was 85.5%. The viability, T/C (second compound 3.16 µM, first compound 0.949 µM) was 75.6%, the viability, T/C (second compound 3.16 µM, first compound 3 µM) was 83.9% and the viability, T/C (second compound 10 µM, first compound 0.00949 µM) was 141%. For the same compound, the viability, T/C (second compound 10 µM, first compound 0.03 µM) was 116%, the viability, T/C (second compound 10 µM, first compound 0.0949 µM) was 115% and the viability, T/C (second compound 10 µM, first compound 0.3 µM) was 101%. The viability, T/C (second compound 10 µM, first compound 0.949 µM) was 87.3% and the viability, T/C (second compound 10 µM, first compound 3 µM) was 91.1%.
